According to patent publication US5264556A, “Monoclonal antibodies for measuring okadaic acid” (priority 1992, dated 1993):

What was measured:
6/50 antibody = assay: Cross-reactivity of 6/50 antibody with OA analogues in competitive ELISA (FIG. 9); type: binding, mouse; conditions: toxins in 40% MEOH
Procedure: FIG. 9A Assay wells were coated with OA and incubated with a fixed concentration of 6/50 IgG and varying amounts of each toxin in 40% MEOH.
FIG 9B & 9C Assay wells were coated with purified antiidiotypic antibody (1/59) F(ab')2 fragments (5 μg/ml) and incubated with a fixed concentration of mAb 6/50 (100 ng/ml) and varying amounts of OA analogues in 40% MEOH.
In FIG. 9A, the assay wells were coated with OA and incubated with a fixed concentration of 6/50 IgG and varying amounts of each toxin in 40% MEOH. Bound antibody was detected with HRP-conjugated anti-mouse IgG. Toxins used in this competitive ELISA were generously donated by Dr. Takeshi Yasumoto (Tohoku University, Japan).
For FIG. 9B and 9C, the assay wells were coated with purified anti-idiotypic (1/59) F(ab')2 (5μg/ml) and incubated with a fixed concentration of antibody 6/50 (100 ng/ml) and varying amounts of okadaic acid analogues in 40% MEOH. Bound 6/50 IgG was detected with HRP-conjugated anti-mouse IgG Fc fragment specific antisera.

[1] = system: F(ab')2 fragments of 6/50 IgG; assay: Competition ELISA, Example II: free OA versus 1/59 IgG for binding to solid-phase 6/50 F(ab')2; design: species or system mouse; conditions: free OA 0-10 μg/ml in 10% MeOH, 1/59 500 ng/ml
Procedure: In the reverse assay, 96-well microtiter plates are coated with 100 μl of 10 μg/ml of F(ab')2 fragments of 6/50 IgG in 0.05M sodium carbonate bicarbonate buffer, pH 9.6, overnight at 4° C. The unbound F(ab')2 fragments are washed off with Tris-buffered saline and the remaining binding sites are saturated with 200 μl of 1% powdered-milk in Tris-saline (TS-MILK) for one hour at 37° C. After washing, the wells are incubated simultaneously with 50 μl of a fixed amount of anti-idiotypic IgG 1/59 (500 ng/ml) and 50 μl of free OA diluted in 10% methanol (MeOH) at increasing concentrations (0-10 μg/ml) for one hour at 37° C. After the unbound antibody and antigen are washed off, 100 μl of a peroxidase conjugated goat anti-mouse IgG Fc-fragment-specific antiserum is added for one hour at 37° C.
The colorimetric reaction is developed upon the addition of 0.03% H2 O2 in 0.1 M sodium citrate buffer, pH 7.0, containing 0.1% OPD. The reaction is stopped with 3 N H2 SO4 and the color intensity measured at a wavelength of 492 nm using a BioRad® ELISA reader.

[2] = biological target: protein phosphatase-1 (PP1) catalytic subunit; assay: Standard phosphorylase a phosphatase assay, PP1; type: biochemical, rabbit; conditions: standard commercial preparation of okadaic acid; read-out: IC50 for PP1 inhibition
Procedure: (§1) The biological activity of OA was assayed by the ability of this toxin to inhibit dephosphorylation of ^32 P-radiolabelled glycogen phosphorylase (E.C. 2.4.1.1) by protein phosphatases (E.C. 3.1.3.16) in the standard phosphorylase phosphatase assay.
(§2) Phosphorylase (50 mM) is dialyzed extensively against NaF (15 mM) to block endogenous phosphatase activity. The protein is diluted to 3 mg/ml (30 pmol/μl ) in Tris HCl (50 mM, pH 7.0) containing ethylenediamine tetra-acetic acid (EDTA, 0.1 mM), bovine serum albumin (1 mg/ml), 2-mercaptoethanol (0.2% v/v) and caffeine (15mM). An incubation comprising 10 μl protein phosphatase-1 or -2A (PP2A, 1 mU/ml in Tris HCl, pH 7.0) and 10 μl phosphatase inhibitor (in Tris HCl, pH 7.0) is carried out for 10 minutes at 30° C. An aliquot (10 μl) of phosphorylase (30 pmol/μl, specific radioactivity >0.6×10^6 dpm/nmol) is added to start the reaction, which is terminated after 10 minutes by adding 200 μl trichloroacetic acid (20% w/v,TCA). The suspension is vortexed, stood on ice for 1 minute and centrifuged at 15,000g for 2 minutes. An aliquot (200 μl) of supernatant is added to 1 ml scintillant and counted. One milliunit(mU) of protein phosphatase activity releases 1 nmol phosphate from phosphorylase per minute. […]

[3] = biological target: T1, protein phosphatase-2A (PP2A) catalytic subunit (Oryctolagus cuniculus, UniProt P67777); assay: Standard phosphorylase a phosphatase assay, PP2A; type: biochemical, rabbit; conditions: standard commercial preparation of okadaic acid; read-out: IC50 for PP2A inhibition
T1 construct: Homogeneous PP-1 and -2A catalytic subunits are purified from rabbit skeletal muscle; from tissue; host or cells: rabbit skeletal muscle
Procedure: as §1, §2

6/50 IgG = assay: Competitive ELISA, Example IV: solid-phase OA versus free OA for binding to 6/50 IgG; design: species or system mouse; conditions: OA standards 0-30 ng/ml in 10% MeOH
Procedure: This assay is based on the competition between solid-phase attached OA and free OA (analyte) for binding to a limited number of binding sites on 6/50 IgG in solution.
Thus, 96-well microtiter plates are coated with 100 μl of OA-OVAL (10 μg/ml) in 0.05M sodium carbonate bicarbonate buffer, pH 9.6, overnight at 4° C. The unbrund OA-OVAL is washed off with Tris-buffered saline and the remaining binding sites are saturated with 200 μl of TS-MILK for one hour at 37° C. After washing, the wells are incubated simultaneously with 50 μl of OA standards (0-30 ng/ml) diluted in 10% MeOH and applied in the presence of 50 μl of limiting amounts of 6/50 IgG for one hour at 37° C. After the unbound antibody and antigen are washed off, 100 μl of a peroxidase conjugated goat anti-mouse IgG antiserum diluted in TS-MILK is added and incubated for one hour at 37° C.
Ihe colorimetric reaction is developed upon the add:tion of 0.03% H2 O2 in 0.1 M sodium citrate buffer, pH 7.0, containing 0.1% OPD. The reaction is stopped with 3 N H2 SO4 and the color intensity measured at a wavelength of 492 nm using a BioRad ELISA reader.

Solubility of OA = type: physicochemical
From the text: It is obvious that methanol has a deleterious effect on 6/50 IgG binding to OA since the sensitivity of OA detection in the presence of 40% MeOH drops considerably when compared with 10% MeOH content. The addition of 10% MeOH seems to be the optimal for this assay. Absence of MeOH decreases OA solubility and thus the slope of the standard curve.

T1 sequence (P67777 whole entry): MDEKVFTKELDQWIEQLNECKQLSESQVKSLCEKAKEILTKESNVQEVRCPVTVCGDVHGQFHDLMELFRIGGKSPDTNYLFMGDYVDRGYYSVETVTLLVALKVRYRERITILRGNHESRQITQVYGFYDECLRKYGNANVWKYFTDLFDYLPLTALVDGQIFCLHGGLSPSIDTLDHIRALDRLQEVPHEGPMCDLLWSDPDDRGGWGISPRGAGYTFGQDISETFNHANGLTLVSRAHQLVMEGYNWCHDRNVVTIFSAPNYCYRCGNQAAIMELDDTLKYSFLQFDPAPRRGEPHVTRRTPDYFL

Structure (SMILES)	binding to 6/50 antibody relative to okadaic acid (cross-reactivity) (6/50 antibody)	inhibition of 1/59 IgG binding to solid-phase bound 6/50 IgG F(ab')2 [1]	IC50 [2] [nM]	IC50 [3] [nM]	competition with solid-phase fixed OA for binding to 6/50 (6/50 IgG)	solubility (Solubility of OA)
C=C1C(O)C2OC3(CCC(C=CC(C)C4CC(C)=CC5(OC(CC(C)(O)C(=O)O)CCC5O)O4)O3)CCC2OC1C(O)CC(C)C1OC2(CCC1C)OCCCC2C (stereo not shown) [DTX-1, 35-methyl-okadaic acid]	significantly lower affinity					
C=C1[C@@H](O)[C@@H]2O[C@]3(CC[C@H](/C=C/[C@@H](C)[C@@H]4CC(C)=C[C@@]5(O[C@H](C[C@@](C)(O)C(=O)O)CC[C@H]5O)O4)O3)CC[C@H]2O[C@@H]1[C@@H](O)C[C@H](C)[C@H]1O[C@@]2(CCCCO2)CC[C@H]1C [okadaic acid]		clearly inhibited	19	0.2	dose-dependent manner	only soluble in the presence of organic solvents
C=C1C(C(CC(C)C2OC3(CCCCO3)CCC2C)OC(C)=O)OC2CCC3(CCC(C=CC(C)C4CC(C)=CC5(OC(CC(C)(OC(C)=O)C(=O)O)CCC5OC(C)=O)O4)O3)OC2C1OC(C)=O (stereo not shown) [tetra acetyl okadaic acid]	significantly lower affinity					
